Bounds are passed on as bounds.

Series [1] is described as follows: Toxicity index, ratio of TC50 for human CEM174 cells to EC50 for Simian immunodeficiency virus. The series is classed as cell-based. The settings on record: read-out: TI.
The test system of series [2] is Simian immunodeficiency virus. As to the kind of experiment: Antiviral activity against Simian immunodeficiency virus infected CEM174 cells assessed as inhibition of virus-induced syncytium after 5 days by microscopic analysis. The series is classed as functional, organism-based. To be noted: CEM174, 120 h.
The target of series [3] is Structural capsid protein (Human immunodeficiency virus 1) (UniProt Q76129). Briefly: Inhibition of Human immunodeficiency virus 1 capsid protein expressed in Escherichia coli BL21(DE3) assessed as capsid assembly rate measured every 5 secs by spectrofluorometric analysis (reference value: 51.88 x 10^-5 OD/s).
For series [4], the target named is T1, Peptidyl-prolyl cis-trans isomerase A (Homo sapiens, UniProt P62937). Briefly: Inhibition of Homo sapiens (human) cyclophilin A PPIase activity expressed in Escherichia coli BL21(DE3) using Suc-AAPF-pNA as substrate measured after 6 secs for 20 secs by spectrophotometric analysis.
The target in series [5] is T1, Peptidyl-prolyl cis-trans isomerase A. As to the kind of experiment: Binding affinity to Homo sapiens (human) cyclophilin A expressed in Escherichia coli BL21(DE3) by fluorescence titration assay.
Series [6] is described as follows: Cytotoxicity against Homo sapiens (human) CEM174 by MTT assay. The settings on record: CEM174 cells, read-out: TC50 (the source's name).

T1 sequence (P62937 whole entry): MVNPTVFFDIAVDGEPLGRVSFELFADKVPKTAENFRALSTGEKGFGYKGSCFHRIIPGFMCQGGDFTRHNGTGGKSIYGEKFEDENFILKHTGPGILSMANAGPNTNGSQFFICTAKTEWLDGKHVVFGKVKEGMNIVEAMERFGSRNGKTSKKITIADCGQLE
Chain of Structural capsid protein (Human immunodeficiency virus 1) (Q76129 as listed by the source): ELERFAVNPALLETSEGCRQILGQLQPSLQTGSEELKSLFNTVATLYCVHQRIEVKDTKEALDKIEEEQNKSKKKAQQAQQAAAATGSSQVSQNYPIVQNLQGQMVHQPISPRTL

Regarding `Cc1cc(NS(=O)(=O)c2ccc(NC(=S)Nc3ccc(Cl)cc3)cc2)no1`, the selectivity ratio in series [1] worked out at 9. Further, the concentration for a half-maximal effect (EC50) in series [2] came to 4.1 µM. In addition, the Activity in series [3] was 14.7 ×10⁻⁵ OD/s.
On to `Cc1cc(NS(=O)(=O)c2ccc(NC(=S)Nc3cccc(Br)c3)cc2)no1`, for which the selectivity ratio in series [1] came to 66. The EC50 in series [2] worked out at 0.9 µM. Further, in series [3], the Activity worked out at 15.8 ×10⁻⁵ OD/s.
Consider `COc1ccc(NC(=S)Nc2ccc(S(=O)(=O)Nc3cc(C)on3)cc2)cc1`, for which the selectivity ratio in series [1] came to 27. In addition, the concentration for a half-maximal effect (EC50) in series [2] was 1.5 µM. The Activity in series [3] amounted to 20.2 ×10⁻⁵ OD/s.
As for `CCN(CC)c1nc(C)c([N+](=O)[O-])c(NC(=S)Nc2ccc(C)c(Cl)c2)n1`, the IC50 in series [4] (read-out: IC50) worked out at 0.74 µM. In series [5], the affinity, expressed as Kd, was 73.3 µM. Further, the selectivity ratio in series [1] is over 14.1. Also, the CC50 in series [6] is over 100 µM. Moreover, the EC50 in series [2] stood at 6.3 µM.
For the compound `Cc1cc(NS(=O)(=O)c2ccc(NC(=S)Nc3cccc(F)c3)cc2)no1`, the IC50 in series [4] (read-out: IC50) is 0.88 µM. The selectivity ratio in series [1] amounted to 8. In series [2], the EC50 is 11.6 µM. For the same compound, in series [3], the Activity was found to be 38.5 ×10⁻⁵ OD/s.
For the compound `CCN(CC)c1nc(C)c([N+](=O)[O-])c(NC(=S)Nc2cccc(Br)c2)n1`, in series [4] (read-out: IC50), the 50% inhibitory concentration (IC50) stood at 0.81 µM. The compound further returned a Kd in series [5] of 79.3 µM. Moreover, the selectivity ratio in series [1] turned out to be 3.5. The CC50 in series [6] turned out to be 26.2 µM. Besides, the EC50 in series [2] worked out at 7.4 µM.
`Cc1ccc(NC(=O)NCCSCc2ccc(CN(C)C)o2)cc1Cl`: the Activity in series [3] was found to be 26.5 ×10⁻⁵ OD/s.
`Cc1cc(NS(=O)(=O)c2ccc(NC(=S)Nc3ccccc3C)cc2)no1`: the selectivity ratio in series [1] turned out to be 8. In addition, in series [2], the EC50 was 6.2 µM.
In the case of `O=C1OCc2ccc(NC(=S)Nc3cccc(F)c3)cc21`, the half-maximal inhibitory concentration (IC50) in series [4] (read-out: IC50) is 0.74 µM. The selectivity ratio in series [1] was determined as 10. Moreover, the EC50 in series [2] came out at 6.3 µM.
As for `Cc1cc(NS(=O)(=O)c2ccc(NC(=S)Nc3cccc(Cl)c3)cc2)no1`, the selectivity ratio in series [1] was found to be 92. Besides, the EC50 in series [2] worked out at 1 µM. Further, the Activity in series [3] amounted to 7.97 ×10⁻⁵ OD/s.
Regarding `CCN(CC)c1nc(C)c([N+](=O)[O-])c(NC(=S)Nc2ccc(Cl)cc2)n1`, the selectivity ratio in series [1] was over 8.33. Also, the CC50 in series [6] was over 100 µM. For the same compound, the EC50 in series [2] turned out to be 12 µM. In addition, in series [3], the Activity was 48.9 ×10⁻⁵ OD/s.
For `CCN(CC)c1nc(C)c([N+](=O)[O-])c(NC(=S)Nc2cccc(F)c2)n1`, in that order: over 26.3, over 100 µM, 3.8 µM and 20.7 ×10⁻⁵ OD/s.
Consider `Cc1ccc(NC(=S)Nc2ccc3c(c2)C(=O)OC3)cc1Cl`, for which, in series [1], the selectivity ratio came to 4. Moreover, the EC50 in series [2] is 4.6 µM. Also, the Activity in series [3] is 9.9 ×10⁻⁵ OD/s.
For `Cc1cc(NS(=O)(=O)c2ccc(NC(=S)Nc3ccc(C)c(Cl)c3)cc2)no1`, in that order: 127, 0.6 µM and 18.4 ×10⁻⁵ OD/s.
With `O=S(=O)(Nc1nccs1)c1ccc(NC(=S)Nc2ccc(Cl)cc2)cc1`, in series [1], the selectivity ratio stood at 3. Also, in series [2], the EC50 was 0.7 µM.
As to `COc1ccc(NC(=S)Nc2ccc3c(c2)C(=O)OC3)cc1`, the IC50 in series [4] (read-out: IC50) came out at 0.92 µM. For the same compound, the selectivity ratio in series [1] worked out at 20. In addition, the EC50 in series [2] was determined as 9.7 µM.
Turning to `CCN(CC)c1nc(C)c([N+](=O)[O-])c(NC(=S)Nc2cccc(Cl)c2)n1`, the selectivity ratio in series [1] stood at 8.6. In series [6], the CC50 came to 31.5 µM. For the same compound, the EC50 in series [2] was determined as 3.7 µM. In addition, in series [3], the Activity is 21.2 ×10⁻⁵ OD/s.
For `Cc1ccc(NS(=O)(=O)c2ccc(NC(=S)Nc3ccc(Cl)cc3)cc2)cc1`, in that order: 19, 77.5 µM, 4.1 µM and 13.3 ×10⁻⁵ OD/s.
For `O=C1OCc2ccc(NC(=S)Nc3ccccc3)cc21`, in series [1], the selectivity ratio amounted to 28. The CC50 in series [6] was 36.3 µM. In series [2], the concentration for a half-maximal effect (EC50) was determined as 1.3 µM. The Activity in series [3] is 25.5 ×10⁻⁵ OD/s.
`Cc1cccc(NC(=S)Nc2ccc3c(c2)C(=O)OC3)c1`: the IC50 result in series [4] was “Not Active”. Also, the selectivity ratio in series [1] came out at 1. For the same compound, the EC50 in series [2] was 11.6 µM. Also, the Activity in series [3] stood at 32.7 ×10⁻⁵ OD/s.
Turning to `CCN(CC)c1nc(C)cc(NC(=S)Nc2cccc(Br)c2)n1`, the IC50 result in series [4] was “Not Active”. This compound displayed a Kd in series [5] of 200 µM. The selectivity ratio in series [1] was over 1.5. Moreover, in series [6], the CC50 was 8.4 µM. In addition, the EC50 in series [2] was 5.5 µM.
